Data as given in ChEMBL document CHEMBL1132735, “Synthesis and biological evaluation of L- and D-configuration 1,3-dioxolane 5-azacytosine and 6-azathymine nucleosides” (Bioorg Med Chem Lett, 2000).

Legend:
[1] = tested on: Human immunodeficiency virus 1; experiment: Concentration required to inhibit 50% of HIV-IIIB virus replication; assay type: functional, organism-based
[2] = tested on: L1210; experiment: Concentration required to inhibit 50% of leukemia L1210 cell replication, tested up to a concentration of 100 uM; assay type: functional, cell-based; details: Mus musculus
[3] = tested on: B16-F10; experiment: Concentration required to inhibit 50% of B16F10 cell replication, tested up to a concentration of 100 uM; assay type: functional, cell-based; details: Mus musculus
[4] = tested on: Vero; experiment: Concentration required to inhibit 50% of host cell replication in Vero cell used against HSV-1 and HSV-2 studies; assay type: functional, cell-based; details: Chlorocebus sabaeus
[5] = tested on: CCRF-CEM; experiment: Concentration required to inhibit 50% of CCRF-CEM cell replication, tested up to a concentration of 100 uM; assay type: functional, cell-based; details: Homo sapiens
[6] = tested on: MT2; experiment: Concentration required to inhibit 50% of host cell replication in MT-2 cells used against HIV studies; assay type: functional, cell-based; details: Homo sapiens
[7] = tested on: HepG2; experiment: Concentration required to inhibit 50% of host cell replication in human hepatoma (2.2.15) cells used against HBV studies; assay type: functional, cell-based
[8] = tested on: Hepatitis B virus; experiment: Concentration required to inhibit 50% of Hepatitis B virus replication; assay type: functional, organism-based
[9] = tested on: Human alphaherpesvirus 1; experiment: Concentration required to inhibit 50% of HSV-1 replication; assay type: functional, organism-based
[10] = tested on: P388; experiment: Concentration required to inhibit 50% of P388 cell replication, tested up to a concentration of 100 uM; assay type: functional, cell-based; details: Mus musculus
[11] = tested on: Human alphaherpesvirus 2; experiment: Concentration required to inhibit 50% of HSV-2 replication; assay type: functional, organism-based

| SMILES | EC50 [1] | EC50 [2] | EC50 [3] | IC50 [4] | EC50 [5] | IC50 [6] | IC50 [7] | EC50 [8] | EC50 [9] | EC50 [10] | EC50 [11] |
| --- | --- | --- | --- | --- | --- | --- | --- | --- | --- | --- | --- |
| Nc1ncn(C[C@@H]2CO[C@H](CO)O2)c(=O)n1 | 5 µM | 70 µM | 70 µM | 12 µM | 20 µM | 17 µM | 17 µM | 0.6 µM | 32 µM | 90 µM | > 50 µM |
| Nc1ncn(C[C@H]2CO[C@@H](CO)O2)c(=O)n1 | 1 µM | 90 µM | 60 µM | 30 µM | 80 µM | 32 µM | 27 µM | 6.3 µM | > 50 µM | 70 µM | > 50 µM |
| Cc1nn(C[C@@H]2CO[C@@H](CO)O2)c(=O)[nH]c1=O | > 100 µM | > 100 µM | > 100 µM | > 50 µM | > 100 µM | > 100 µM | > 50 µM | > 20 µM | > 50 µM | > 100 µM | > 50 µM |
| Cc1cn([C@H]2C=C[C@@H](CO)O2)c(=O)[nH]c1=O [STAVUDINE] | 0.6 µM |  |  |  |  | > 100 µM |  | > 20 µM |  |  |  |
| Cc1nn(C[C@H]2CO[C@@H](CO)O2)c(=O)[nH]c1=O | > 100 µM | > 100 µM | > 100 µM | > 50 µM | > 100 µM | > 100 µM | > 50 µM | > 20 µM | > 50 µM | > 100 µM | > 50 µM |
| Nc1ccn([C@H]2CC[C@@H](CO)O2)c(=O)n1 [ZALCITABINE] |  |  |  |  |  |  | > 37 µM | 2.3 µM |  |  |  |
| Cc1nn(C[C@H]2CO[C@H](CO)O2)c(=O)[nH]c1=O | > 100 µM | > 100 µM | > 100 µM | > 50 µM | > 100 µM | > 100 µM | > 50 µM | > 20 µM | > 50 µM | > 100 µM | > 50 µM |
| Nc1nc2c(ncn2COCCO)c(=O)[nH]1 [ACYCLOVIR] |  |  |  | > 50 µM |  |  |  |  | 23 µM |  | 35 µM |
| Nc1ncn(C[C@H]2CO[C@H](CO)O2)c(=O)n1 | > 100 µM | 70 µM | 70 µM | 31 µM | 30 µM | 18 µM | 17 µM | 6.5 µM | > 50 µM | 65 µM | > 50 µM |
| Nc1ncn(C[C@@H]2CO[C@@H](CO)O2)c(=O)n1 | > 100 µM | 80 µM | 80 µM | 28 µM | 70 µM | 27 µM | 25 µM | > 20 µM | > 50 µM | 70 µM | > 50 µM |
| Cc1nn(C[C@@H]2CO[C@H](CO)O2)c(=O)[nH]c1=O | > 100 µM | > 100 µM | > 100 µM | > 50 µM | > 100 µM | > 100 µM | > 50 µM | > 20 µM | > 50 µM | > 100 µM | > 50 µM |
